From the supplement of paper PMC10307832

How the values were obtained:
Assay in all cases: relative viability (nuclei count vs DMSO), 5 days (fraction); higher = more cells survive
AZ505 + Alpelisib = compound: C1CCC(CC1)N(CCNCCC2=C3C(=C(C=C2)O)NC(=O)CO3)C(=O)CCNCCC4=CC(=C(C=C4)Cl)Cl [AZ505] + Cc1nc(NC(=O)N2CCC[C@H]2C(N)=O)sc1-c1ccnc(C(C)(C)C(F)(F)F)c1 [Alpelisib] (partner 2 µM)
Outline: (§1)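 The day after seeding in 1536-well plates, lung cancer cell lines were treated by pin tool with a single drug, or with a fixed anchor-drug dose together with five library-drug doses (not always all listed) in √10 steps. After 5 days, a combined fix-and-stain solution (final 0.05% Triton X-100, 1% formaldehyde, 1 ug/ml Hoechst) was added. Nuclei counted on 4× images gave relative viability as treated counts over vehicle counts, reported as the median of duplicate plates.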

Dactolisib + Pemetrexed = compound: Cn1c(=O)n(-c2ccc(C(C)(C)C#N)cc2)c2c3cc(-c4cnc5ccccc5c4)ccc3ncc21 [Dactolisib] + Nc1nc2[nH]cc(CCc3ccc(C(=O)N[C@@H](CCC(=O)O)C(=O)O)cc3)c2c(=O)[nH]1 [Pemetrexed] (partner 0.2 µM)
Outline: as §1

AZ505 = compound: C1CCC(CC1)N(CCNCCC2=C3C(=C(C=C2)O)NC(=O)CO3)C(=O)CCNCCC4=CC(=C(C=C4)Cl)Cl [AZ505]
Outline: (§2)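 Five library-drug doses, separated by factors of √10, were pinned into 1536-well plates holding lung cancer cell lines after an overnight stay at 37 °C. Cells were fixed, permeabilised and Hoechst-stained in one step after 5 days without medium change, then imaged at 4×. Viability compares treated-well with vehicle-well nuclei, counted in MetaXpress, as a median across plates. Passing plates had control CV below 25% and at least one doubling.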

Dactolisib = compound: Cn1c(=O)n(-c2ccc(C(C)(C)C#N)cc2)c2c3cc(-c4cnc5ccccc5c4)ccc3ncc21 [Dactolisib]
Outline: as §2

Cell Line	relative viability (AZ505 + Alpelisib; first compound 0.08 µM)	relative viability (AZ505 + Alpelisib; first compound 0.253 µM)	relative viability (AZ505 + Alpelisib; first compound 0.8 µM)	relative viability (AZ505 + Alpelisib; first compound 2.53 µM)	relative viability (AZ505 + Alpelisib; first compound 8 µM)	relative viability (Dactolisib + Pemetrexed; first compound 0.002 µM)	relative viability (Dactolisib + Pemetrexed; first compound 0.006325 µM)	relative viability (Dactolisib + Pemetrexed; first compound 0.02 µM)	relative viability (Dactolisib + Pemetrexed; first compound 0.06325 µM)	relative viability (Dactolisib + Pemetrexed; first compound 0.2 µM)	relative viability (AZ505; 0.08 µM)	relative viability (AZ505; 0.253 µM)	relative viability (AZ505; 0.8 µM)	relative viability (AZ505; 2.53 µM)	relative viability (AZ505; 8 µM)	relative viability (Dactolisib; 0.002 µM)	relative viability (Dactolisib; 0.006325 µM)	relative viability (Dactolisib; 0.02 µM)	relative viability (Dactolisib; 0.06325 µM)	relative viability (Dactolisib; 0.2 µM)
NCI-H1734	0.633	0.626	0.631	0.744	0.683	0.335	0.436	0.415	0.36	0.317	0.905	0.914	0.952	0.971	0.958	1.04	0.887	0.864	0.384	0.313
HARA	0.704	0.641	0.582	0.512	0.494	0.242	0.22	0.3	0.235	0.223	0.792	0.758	0.915	0.873	0.847	1.08	0.982	0.928	0.601	0.369
HCC-15	0.773	0.926	0.918	0.809	0.933	0.215	0.22	0.26	0.25	0.231	0.938	0.963	1.03	0.956	1.1	0.98	0.974	0.985	0.635	0.422
LCLC-97TM1	0.327	0.333	0.26	0.247	0.363	0.169	0.158	0.186	0.192	0.16	0.893	0.838	0.897	0.759	1.06	1.01	1.02	0.9	0.802	0.388
RERF-LC-KJ	0.775	0.767	0.741	0.901	0.863	0.488	0.479	0.46	0.433	0.434	0.947	0.968	0.925	0.953	0.943	1	0.961	0.889	0.497	0.509
NCI-H1651	0.94	1.03	0.977	0.89	0.939	0.53	0.654	0.533	0.329	0.299	0.927	0.984	0.977	0.938	1.04	1.01	1	0.872	0.555	0.434
NCI-H2170	0.804	0.914	0.719	0.846	0.918	0.262	0.258	0.281	0.261	0.263	0.953	1.01	0.932	0.998	0.976	1.02	0.971	0.96	0.648	0.447
NCI-H2023	0.561	0.618	0.588	0.491	0.533	0.172	0.182	0.179	0.101	0.0876	0.901	0.936	0.931	0.923	0.957	0.827	0.875	0.579	0.166	0.12
